# Test results published in patent US4473581A (priority 1979, dated 1984).
# Structures can show the parent of a compound that is named as a salt.
# How the values were obtained:
# [1] = test system: vesicular stomatitis virus (VSV) in L-1D cells; format: cell-based
# interferon = test: Interferon induction in healthy volunteers; format: in vivo; conditions: human
# Method: Capsules of Ge were orally administered to eight healthy volunteers, 21 to 23 years old. The dose administered to one group (two men and two women) was 75 mg/kg and that administrated to the other group (two men and two women) was 25 mg/kg. Serum samples were collected at predetermined intervals, the interferon titers were determined, and the results reflected in FIGS. 4 and 5 were obtained. […] The reported results thus evidence that Ge induces A-M.phi. in humans as well as in mice.
# [2] = test system: Ehrlich ascites tumor cells; test: Anti-tumor activity of peritoneal exudate cells from Ge treated mice on Ehrlich ascites tumor bearing mice; format: in vivo, DDI mice; conditions: peritoneal exudate cells from mice given 300 mg/kg Ge, six days i.p. (FIG. 3)
# Method: An anti-tumor activity test of peritoneal exudate cells obtained from mice treated with Ge in a dosage amount of 300 mg/kg was conducted on Ehrlich ascites tumor bearing mice.
# 1×10^5 cells/mouse of Ehrlich ascites tumor cells were transplanted into the peritoneal cavity of DDI mice. Twenty-four hours later, these mice were intraperitoneally supplied with 5×10^3 peritoneal exudate cells obtained from mice treated with Ge once daily for six consecutive days. Peritoneal exudate cells obtained from saline injected mice were likewise supplied to tumor bearing mice as a control.
# FM-3A cells = test: Growth inhibition of FM-3A tumor cells co-cultured with macrophages from Ge treated mice; format: cell-based; conditions: 48 hours
# Method: It is known that interferon has the ability to convert a standing macrophage into a tumoricidal macrophage, deemed activated macrophage (A-M.phi.), either in vivo or in vitro. Since the Ge induced the formation of immune interferon in vivo, it was expected that A-M: would be induced in the Ge treated animal.
# Peritoneal exudate cells obtained from mice 72 hours after treatment with a 300 mg/kg dose of Ge were cultured for 20 minutes in a petri dish utilizing RPMI-1640 medium supplemented with 10% fetal calf serum. Cells adhering to the petri dish, obtained by washing with the same culture medium, were separately co-cultured with FM-3A cells as the target tumor cells, in a ratio of 10:1. FM-3A cells were cultured singly, or with macrophages derived from normal mice, as the control. In each run, the growth of FM-3A cells was monitored. A determination of the number of FM-3A cells was carried out per the dye exclusion test using Trypan-Blue. […] Thus, it is apparent that Ge induces the formation of A-M: in live mice.
# MEP-II tumor cells = test: Anti-tumor effect of oral Ge in MEP-II tumor bearing mice; format: in vivo, DDI mice; conditions: 100 and 300 mg/kg oral, once daily, seven days
# Method: 4×10^3 MEP-II tumor cells were transplanted intraperitoneally in DDI mice as described above. Twenty-four hours later, Ge was orally administered, once daily for seven consecutive days at a daily dosage of 100 or 300 mg/kg to ascertain any anti-tumor effect. In a control group, 0.2 ml of physiological saline solution was orally administered, also once daily for seven days.
# [3] = test system: vesicular stomatitis virus (VSV) in L-1D cells; format: cell-based; remark: listed apart in the source
# [4] = test system: vesicular stomatitis virus (VSV) in human embryonic lung cells; format: cell-based; conditions: human serum, 75 mg/kg oral
# [5] = background statement on known inducers; cited from earlier work
# dogs = test: Chronic toxicity in dogs, intravenous, six months; conditions: 500 mg/kg per day
# [6] = Acute toxicity (LD50) in rats; conditions: rat, in vivo
# rats = test: Chronic toxicity test in rats, oral, six months; conditions: six months, 30, 300 or 3000 mg/kg per day
# [7] = Acute toxicity (LD50) in mice; conditions: mouse, in vivo
# [8] = intravenous injection, larger than any physically practicable maximum amount
compound,measurement,setting,value
"double-stranded complex polyriboinosinic acid and polyribocytidylic acid [Poly 1-C, reference compound]",Interferon Titer,[1]; pH 2,640
same,Remaining amount of titer,[1]; pH 2,100%
O=C(O)C[CH2][Ge](=[O])[O][Ge](=[O])[CH2]CC(=O)O [Ge],production of interferon,interferon; 25 mg/kg oral capsules (FIGS. 4 and 5),"production of interferon was observed, although the level was lower"
same,production of interferon,interferon; 75 mg/kg oral capsules (FIGS. 4 and 5),significant production of interferon was observed in each case
same,anti-tumor activity of macrophage activated by Ge treatment (in words),[2],marked anti-tumor activity
same,growth of FM-3A cells (in words),FM-3A cells,prominently inhibited
same,anti-tumor activity (in words),MEP-II tumor cells,both dosage amounts of Ge exhibited anti-tumor activity
same,viral infection inhibitory activity in serum,"[3]; mice, 300 mg/kg oral, 25 hours after administration (FIG. 1)",viral infection inhibitory activity was detected
same,dose dependency of viral infection inhibitory activity,"[3]; mice, oral, varied doses (FIG. 2)",dose dependent
same,species specificity of induced viral infection inhibitory factor,"[3]; mouse and human sera compared on L-1D, human embryonic lung and chicken embryonic cells",species specific
same,"antiviral activity of induced agent, L-1D cells (in words)","[3]; mouse serum, 300 mg/kg oral",displayed resistance to viral infection only in the L-1D cells
same,stability of induced factor to heat and acid (in words),"[1]; mouse serum, 56° C. one hour, acidification to pH 2.0",unstable to thermal treatment at 56 °C for one hour and also to acidification to pH 2.0
same,trypsin lability of induced factor (in words),"[1]; mouse serum, trypsin 37° C., 3 hours",trypsin labile
same,type of interferon induced,"[1]; mouse serum, from thermal and acid treatments",immune (type II) interferon
same,"antiviral activity of induced agent, human cells (in words)",[4],displayed antiviral activity only in human cells
CCCCCCCCCCCCCCCCCCN(CCCCCCCCCCCCCCCCCC)CCCN(CCO)CCO [CP-20961],adverse side effects,[5],one or more adverse side effects
CCN(CC)CCOc1ccc2c(c1)C(=O)c1cc(OCCN(CC)CC)ccc1-2 [tilorone hydrochloride],adverse side effects,[5],one or more adverse side effects
O=C(O)C[CH2][Ge](=[O])[O][Ge](=[O])[CH2]CC(=O)O [carboxyethyl germanium sesquioxide],toxicity,dogs,no toxicity was found
same,LD50,[6]; [8],> 1000 mg/kg
same,LD50,[6]; oral,> 10000 mg/kg
same,death in chronic toxicity test,rats,no rat died
same,pathological disorder in chronic toxicity test,rats,no pathological disorder was observed
same,LD50,[7]; [8],> 1000 mg/kg
same,LD50,[7]; oral,> 6300 mg/kg
